Measured values published in patent US11339119B2, “Crystal form and amorphous form of dezocine analogue hydrochloride” (Shandong Danhong Pharmaceutical Co., Ltd., priority 2017, dated 2022).
≈ marks a conversion by molar mass, not a printed value. Where “and” joins values, the source holds several entries; their conditions need not be identical. Equal values may be shown once. Entries after “also recorded” stand apart in the source; their conditions may differ.

Tests used:
[1] = Hygroscopicity test of amorphous form sample; format: physicochemical; settings: 25° C., 24 h
Protocol: A hygroscopicity of an amorphous form sample was detected. (The hygroscopicity of the compound was determined according to the method in the General Rules of the Chinese Pharmacopoeia (2015 Version) Volume IV).
Three dry glass weighing bottles with stoppers were weighed, the results of which were recorded as m1 1, m1 2 and m1 3. An appropriate amount of crude drug sample was spread in the weighed weighing bottles (the sample has a thickness of about 1 mm), then accurately weighed and recorded as m2 1, m2 2 and m2 3. The weighing bottles were open and placed together with bottle caps in a dryer with saturated ammonium chloride solution at a lower part, the dryer was covered, then the dryer was placed in a thermostat at 25° C. for 24 h. After being placed for 24 h, the weighing bottles were covered, then taken out for accurate weighing, the results of which were recorded as m3 1, m3 2 and m3 3. Weight increase by hygroscopicity was calculated, and the calculation formula was as follows: weight increase percentage=100%×(m3−m2)/(m2−m1).

[2] = Equilibrium solubility of amorphous form sample in different pH media; format: physicochemical; settings: for solubility at 24 h: thermodynamic from solid
Protocol: An equilibrium solubility of an amorphous form sample in pH 1.0/2.0 (hydrochloric acid solution), pH 3.8/4.5/5.5 (acetate buffer solution), pH 6.0/6.8/7.4 (phosphate buffer solution) and water was detected (prepared according to the Technical Guiding Principles for Dissolution Rate Test of Ordinary Oral Solid Preparations of Chinese Pharmacopoeia).
5 mL of different media (pH 1.0, pH 2.0, pH 3.8, pH 4.5, pH 5.5, pH 6.0, pH 6.8 and pH 7.4 buffer solutions and pure water) were respectively added into nine 8 mL glass bottles, and an appropriate amount of amorphous form sample was added respectively to make the mixture a suspension. Magnetic stirring bars were added into the sample above, which are placed on a magnetic stirrer to stir (at a temperature of 37° C.).
The sample was centrifuged after 24 h, and a supernatant was taken from an upper sample to determine a concentration thereof by HPLC and a pH value thereof (results shown in Table 4).

[3] = Solid stability test of amorphous form (HPLC content and total impurity); format: physicochemical
Protocol: 1.5 High Performance Liquid Chromatograph (HPLC) • Instrument model: Agilent 1200 high performance liquid chromatograph • The analysis method is as follows:
Stability of amorphous form sample under conditions of high temperature, high humidity (40° C./RH 75.0%, closed) and acceleration.
About 1.4 g of sample was put into a double-layer LDPE bag, each layer of LDPE bag was fastened and sealed respectively, then the LDPE bag and a medicinal desiccant were put into an aluminum-foil bag and sealed by heating, under conditions of high temperature and high humidity, a sample was taken on the 30th day for detection, and a detection result was compared with an initial detection result on the 0th day.

[4] = Solid stability test of crystal form (XRPD); format: physicochemical
Protocol: According to the Guiding Principles for Stability Experiment of Crude Drugs and Preparations (General Rules 9001 of Chinese Pharmacopoeia (2015 Version) Volume IV), a stability of a compound placed under conditions of high temperature (60° C., open), high humidity (RT/92.5% RH, open) and illumination (50001×, closed) for 5 days and 10 days were investigated.
An appropriate amount of a crystal form sample of a compound represented by formula (I) was placed at a bottom of a glass sample bottle and spread into a thin layer. The sample placed under the conditions of high temperature and high humidity was sealed with aluminum-foil paper, and small holes were punched in the aluminum-foil paper to ensure that the sample could be fully contacted with ambient air. The sample placed under the condition of illumination (50001×) was sealed with a bottle cap and further sealed with a sealing film, the sample was sealed and placed at a room temperature, and XRPD detection was performed on the 5th day and the 10th day.

[5] = Pharmacokinetic study, intramuscular injection in mouse; format: in vivo, SD mouse; settings: sesame oil suspension
Protocol: Through the experiment of drug metabolism in a mouse, the metabolism of the compound in the mouse is evaluated by taking Cmax, t1/2, AUC, MRT and B/P ratio in vivo as indexes.
A test compound was mixed with an appropriate amount of sesame oil, and the mixture was vortexed and ultrasonically processed to obtain an even suspension of 25 μmol/mL. A SD mouse aged 6 weeks to 9 weeks (Shanghai SLAC Laboratory Animal Co., Ltd) was selected and intramuscularly injected with a suspension of the test compound at a dose of 20 μmol/kg or 40 μmol/kg. Whole blood of a certain period of time was collected, and a precipitant (acetonitrile, methanol and internal standard for analysis) was added and centrifuged. A supernatant solution was analyzed for a drug concentration by a LC-MS/MS method (if the test drug was the prodrug, concentrations of the prodrug and the hydrolyzed parent drug were analyzed simultaneously), and pharmacokinetic parameters were calculated by Phoenix WinNonlin software (Pharsight Company of the United States).

[6] = High temperature and high humidity (40° C./RH 75.0%, close), 30 days

Question: For `C[C@@]12CCCCC[C@@H](Cc3c(F)cc(OC(=O)CCCCCCCCC(=O)Oc4cc(F)c5c(c4)[C@@]4(C)CCCCC[C@@H](C5)[C@@H]4N)cc31)[C@@H]2N` [listing 1 of 2 here], which “Hygroscopicity (in words)” value [1] is on record?
Answer: had hygroscopicity

Question: And the “Weight increase percentage, average value” ([1]; average of three samples, over saturated ammonium chloride solution)?
Answer: 5.24%

Question: What about the Weight increase percentage ([1]; single samples 1-3, over saturated ammonium chloride solution) of the same molecule?
Answer: 5.790% and 5.215% and 4.714%

Question: What about the solubility at 24 h ([2]; 0.01 N HCl, simulated gastric fluid, 0.01 NHCl, final pH 2.01, 37° C., 24 h) of the same molecule?
Answer: 1630 µg/mL (≈ 2.35 mM)

Question: And the solubility at 24 h ([2]; 0.1 N HCl, simulated gastric fluid, 0.1 NHCl, final pH 1.02, 37° C., 24 h)?
Answer: 398 µg/mL (≈ 0.574 mM)

Question: And the solubility at 24 h ([2]; aqueous buffer, pH 3.8 buffer solution (acetate), final pH 3.68, 37° C., 24 h)?
Answer: 15100 µg/mL (≈ 21.8 mM)

Question: And the solubility at 24 h ([2]; aqueous buffer, pH 4.5 buffer solution (acetate), final pH 4.48, 37° C., 24 h)?
Answer: 19600 µg/mL (≈ 28.3 mM)

Question: And the solubility at 24 h ([2]; aqueous buffer, pH 5.5 buffer solution (acetate), final pH 5.25, 37° C., 24 h)?
Answer: 18700 µg/mL (≈ 27 mM)

Question: And the solubility at 24 h ([2]; aqueous buffer, pH 6.0 buffer solution (phosphate), final pH 5.89, 37° C., 24 h)?
Answer: 13 µg/mL (≈ 0.0188 mM)

Question: And the solubility at 24 h ([2]; aqueous buffer, pH 6.8 buffer solution (phosphate), final pH 6.75, 37° C., 24 h)?
Answer: 3 µg/mL (≈ 0.00433 mM)

Question: What about the “Solubility (in words)” value ([2]; hydrochloric acid solution, acetate buffer solution and water) of the same molecule?
Answer: easily soluble

Question: What about the Solubility ([2]; pH 7.4 buffer solution (phosphate), final pH 7.20, 37° C., 24 h, LOQ = 0.0003 mg/mL) of the same molecule?
Answer: <LOQ

Question: And the “Solubility (in words)” value ([2]; phosphate buffer solution)?
Answer: slightly soluble or insoluble

Question: What about the solubility at 24 h ([2]; pure water, Water, final pH 4.28, 37° C., 24 h) of the same molecule?
Answer: 13500 µg/mL (≈ 19.5 mM)

Question: And the Content ([3]; 0 day)?
Answer: 99.3%

Question: What about the Total impurity ([3]; 0 day) of the same molecule?
Answer: 1.56%

Question: What about the Content [3, 6] of the same molecule?
Answer: 97.8%

Question: And the Total impurity [3, 6]?
Answer: 1.96%

Question: And the “Solid stability of amorphous form (conclusion in words)” value ([3]; high temperature, high humidity and sealing, 30 days)?
Answer: relatively stable

Question: With `C[C@@]12CCCCC[C@@H](Cc3c(F)cc(OC(=O)CCCCCCCCC(=O)Oc4cc(F)c5c(c4)[C@@]4(C)CCCCC[C@@H](C5)[C@@H]4N)cc31)[C@@H]2N` [listing 2 of 2 here] as the molecule, how does the “Crystal form (MOD)” value ([4]; 0 day, initial) read?
Answer: Crystal form of compound represented

Question: And the “Crystal form (MOD)” value ([4]; High humidity (RT/RH 92.5%, open), 5 days)?
Answer: Crystal form of compound represented

Question: And the “Crystal form (MOD)” value ([4]; High humidity (RT/RH 92.5%, open), 10 days)?
Answer: Crystal form of compound represented

Question: What about the “Crystal form (MOD)” value ([4]; High temperature (60° C., open), 5 days) of the same molecule?
Answer: Crystal form of compound represented

Question: And the “Crystal form (MOD)” value ([4]; High temperature (60° C., open), 10 days)?
Answer: Crystal form of compound represented

Question: What about the “Crystal form (MOD)” value ([4]; Illumination (5000lx, closed), 5 days) of the same molecule?
Answer: Crystal form of compound represented

Question: What about the “Crystal form (MOD)” value ([4]; Illumination (5000lx, closed), 10 days) of the same molecule?
Answer: Crystal form of compound represented

Question: What about the “Solid stability of crystal form (conclusion in words)” value ([4]; high temperature, high humidity and illumination, 5 and 10 days vs 0 day) of the same molecule?
Answer: did not change; also recorded: stable under the conditions of high temperature, high humidity and illumination without any change

Question: For `C[C@@]12CCCCC[C@@H](Cc3c(F)cc(OC(=O)CCCCCCCCC(=O)Oc4cc(F)c5c(c4)[C@@]4(C)CCCCC[C@@H](C5)[C@@H]4N)cc31)[C@@H]2N` [Compound B], which “Release and hydrolysis in vivo (in words)” value [5] is on record?
Answer: slowly released in vivo after intramuscular injection and quickly hydrolyzed into the parent drug compound A
